Results reported in the NIST ThermoML archive (doi:10.1016/j.jct.2015.05.005).

Settings: Liquid mixture 1, Pendant drop shape

O=C=O [carbon dioxide] + O
Settings | interfacial tension [mN/m]
298.4 K, 6830 kPa | 31
298.5 K, 7200 kPa | 30.99
298.5 K, 8100 kPa | 31.09
298.6 K, 6490 kPa | 30.79
298.6 K, 8970 kPa | 30.98
298.6 K, 10630 kPa | 30.73
298.6 K, 13180 kPa | 30.62
298.6 K, 15150 kPa | 30.81
298.6 K, 20830 kPa | 29.84
